Structures are written as SMILES.

Turning to `CCOc1cccc(S(=O)(=O)c2ccc(C)nc2Nc2c(C)cc(C)cc2C)c1`, the melting point – broadly, the temperature of the solid-liquid transition – lay in the range of 96 to 97 °C.

Compound `COc1ccnc(-c2cccs2)c1` returned a melting point of 43 to 45 °C. For the compound `Cc1ccccc1-c1cc(=O)c2ccccc2o1`, the melting point lay within 45.5 to 47.5 °C. As for `CCCc1sc(-c2ccccc2)nc1OC(=O)Nc1ccccc1`, the figure is 104 to 105 °C; as for `CCOCc1nc2c(N)nc3ccccc3c2n1CCCCCC(=O)N1CCOCC1`, 160 to 162 °C. The compound `CCN(CC)C(=O)NC1CC2c3cccc4[nH]c(CC#CO)c(c34)CC2N(C)C1` (stereo not drawn) gave a melting point of 151 to 154 °C.

For `O[C@@H]1CCN(Cc2nc(-c3ccc4c(c3)Nc3ccccc3S4)cs2)C1`, the melting point was 178 to 180 °C. As for `CSc1nc2c(cnn2CC(O)c2ccccc2)c(=O)[nH]1` (stereo not drawn), the figure is 208 to 209 °C. As for `Cc1cccc(N2CCOC2=O)c1COc1cccn2c(CO)c(C)nc12`, the figure is 190 to 193 °C. In turn, `CCCCN(CCCC)S(=O)(=O)c1ccc(-n2oc(C)cc2=O)c([N+](=O)[O-])c1` registered a melting point of 84 to 86 °C.

For the compound `O=[N+]([O-])c1cc([N+](=O)[O-])c(Nc2ccc(Cl)c3ccccc23)c(C(F)(F)F)c1`, the melting point was 197 to 198 °C. The figure for `CNS(=O)(=O)c1cc(C(=O)OC)cc(N2CCCC2)c1Oc1ccccc1` is 138 to 139 °C. As for `O=C(CCCCCNC(=O)OCc1ccccc1)N[C@@H](Cc1ccccc1)C(=O)O`, the figure is 119 to 120 °C; as for `N#Cc1c(C(=O)O)nn(-c2ccc(Cl)cc2Cl)c1-c1ccc(Cl)cc1`, 132 to 137 °C. As for `COc1ccc(CC(NC(=O)c2ccccc2)c2cccnc2)cc1OC` (stereo not drawn), the figure is 156 to 158 °C. The compound `O=C1c2ccccc2CC(=NO)c2ccccc21` returned a melting point of 186 °C. As for `CN(C)C(=O)c1nn(-c2ccc(Cl)cc2)c(=O)c2c(N)scc12`, the figure is 242 to 244 °C. As for `CSc1ccc2n1CCC2C#N` (stereo not drawn), the figure is 58 to 58.5 °C. As for `CC(C)n1nc(-c2sc(NC(=O)CNCc3cccnc3)nc2-c2ccccc2)ccc1=O`, the figure is 156 to 158 °C; as for `Cc1oc(-c2ccccc2)nc1CCOc1ccc(C#N)cc1`, 119 to 120 °C; as for `CC1(C)CC(CNS(=O)(=O)c2ccc(Cl)cc2)(Cc2ccc(CC(=O)O)cc2)C1`, 140 to 142 °C. In turn, `Cc1nc2c3c(ccn2c1C)C(=O)[C@H](OC(=O)C(C)(C)C)[C@@H](c1ccccc1)N3` yielded a melting point of 185 to 187 °C.

Compound `CCCc1c(OCCCc2ccc3cc(OC)c(OC)cc3c2)ccc(C(=O)O)c1O` gave a melting point of 165 to 168 °C.

For the compound `CS(=O)(=O)c1cccc(S(C)(=O)=O)n1`, the melting point is 192 to 195 °C. Take `CCC1CC(=Cc2ccc(N(CC)CC)cc2)C(=O)C(=Cc2ccc(N(CC)CC)cc2)C1` (stereo not drawn): the melting point is 141 °C. `CC(C)N(C(N)=S)c1ccc2c(c1)OCO2` came in with a melting point of 149 to 151 °C. The figure for `Cc1cc(C(=O)c2ccc(Br)cc2)c(O)cc1Cl` is 238 to 239 °C; for `CNc1nc(N)nc(-c2ccc(-c3ccccc3)cc2)n1` it is 237 to 238 °C; for `CC(=O)Nc1ccccc1-c1nc(C)c(-c2cccnc2)[nH]1` it is 270 to 271 °C.

Regarding `CC(=O)N1CCC(n2ccc(-c3ccc(F)cc3)c2-c2ccncc2)CC1`, the melting point was in the range of 223 to 224 °C.

For `CCON(C(=O)Cc1c(C)cc(Cl)cc1C)C1(C#N)CCN(OC)CC1`, the melting point is 100 to 103 °C.

`CC1(C)NC(=O)N(c2cc(Cl)c(F)c(Cl)c2)C1=O` displayed a melting point of 175 to 176 °C. The compound `CCCCn1cnnc1SC(=O)c1ccoc1` displayed a melting point of 102 to 105 °C. `CC(C)(C)OC(=O)NCCNC(=O)c1cccc(Cl)n1` returned a melting point of 114 to 115 °C.

As to `O=C1CCC(=O)N1c1ccc(N2CCN(c3ccc(OCC(O)(Cn4cncn4)c4ccc(Cl)cc4Cl)cc3)CC2)cc1` (stereo not drawn), the melting point was in the range of 212 to 216 °C. `O=C(NC[C@H](O)c1ccccc1)c1ccnc(N2CCN(Cc3ccc(F)cc3)C2=O)c1` gave a melting point of 97 to 99 °C. As for `O=C(NCCSCc1cccc(C(F)(F)F)c1)c1c(Cl)cccc1Cl`, the figure is 54 to 55 °C; as for `Cc1cc(-c2cc(C(F)F)n3ncc(C(=O)Nc4nc(C)c(S(N)(=O)=O)s4)c3n2)ccc1C(F)(F)F`, 307 °C.

Turning to `CSc1cn(C)c2sccc2c1=O`, the melting point lay in the range of 138 to 140 °C. As for `O=C(N[C@H]1CC[C@H](CCN2CCN(c3nccc4c3CCO4)CC2)CC1)c1ccc(-c2ccccc2)cc1`, the figure is 232 °C; as for `O=[N+]([O-])c1[nH]c(-c2c(Cl)cc(C(F)(F)F)cc2Cl)nc1C(F)(F)F`, 244 to 252 °C; as for `CCOC(=O)N1CCN(c2ncc(F)c(SC)n2)CC1`, 110 to 112 °C. The figure for `CC1(C)COc2ccc(C(=O)Nc3ccc(C(=O)O)cc3)cc2OC1` is 249 to 251 °C.

With `CCOc1cccc(CN2CCc3cc(O)c(OC)cc3C2)c1`, the melting point lay in the range of 105 to 106 °C. As for `CC(=O)c1ccc(N2CCC(N(C)Cc3ccc(F)cc3)CC2)cc1`, the figure is 133 °C; as for `NC(=O)N1C(=O)C(C(=O)c2cccs2)c2cnccc21` (stereo not drawn), 250 °C; as for `C=C(C)c1c2c(c(C)c(C)c1N1CCN(c3ccc(OC)cc3)CC1)OC(C)(C)C2`, 174 to 175 °C. As to `O=Cc1oc(-c2ccccc2)nc1CO`, the melting point is 134 to 135 °C.

The compound `COc1cc(Cl)cc2c1CCC2` had a melting point of 38 to 40 °C. As for `CC(C)OCCNc1ccccc1C(=O)C(=O)OC(=O)C(=O)c1ccccc1NCCOC(C)C`, the figure is 107 to 108 °C; as for `C=CCC1CC(c2c[nH]c(-c3ccc(F)cc3)c2-c2ccncc2)=CCN1C` (stereo not drawn), 178 to 180 °C; as for `O=S(=O)(c1ccc(Cl)cc1)C(CCO)c1cc(F)ccc1F` (stereo not drawn), 147 to 149 °C.

For the compound `COC1CC2CCC1C2Nc1ccc([N+](=O)[O-])c2onnc12` (stereo not drawn), the melting point is 178 to 180 °C.

In the case of `CCCCCCCCCCCOC(=O)NCCC`, the melting point was in the range of 45 to 45.5 °C. In the case of `CNC(=O)c1nc(SC)n2c1CN=C(c1ccccc1Cl)c1cc(Cl)ccc1-2`, the melting point lay in the range of 224 to 227 °C.

The compound `CCOC(=O)C(O)c1oc(-n2ccnc2C)nc1-c1ccc(Cl)cc1` (stereo not drawn) registered a melting point of 197 to 198 °C.

Consider `Nc1c(I)c(C(=O)NCC(O)CO)c(I)c(C(=O)NCC(O)CO)c1I` (single isomer, unassigned; (-)), for which the melting point was 203 °C. The figure for `CCOC(=O)c1ccc(CN(C(C)=O)C(=O)OC(C)(C)C)cc1` is 96 to 97 °C; for `CNC(=O)c1ccc2c(c1Nc1nc(Nc3ccc4c(c3)CCCC(=O)N4C)ncc1Cl)OCO2` it is 254 to 256 °C; for `Cc1c(SCCCCl)ccnc1CSc1nc2ccccc2[nH]1` it is 112 to 114 °C. As for `CCCc1nn(C)c(C(N)=O)c1NC(=O)c1cc2cccc(OCC)c2o1`, the figure is 219 to 221 °C; as for `CCC(=O)Nc1cc(NC(=O)CC)cc([N+](=O)[O-])c1`, 197 to 198 °C. The figure for `CC1=C(C(=O)OCCO)C(c2cccc([N+](=O)[O-])c2)C2=C(CCCS2(=O)=O)N1` (stereo not drawn) is 233 to 235 °C.

These data come from a melting point compilation (Tetko et al.; mined from patent text by program, amines drawn as free bases though some values may be those of a salt).
